Results published in US20150232954A1, “Method for quantifying different viral forms of the DNA of the HIV virus” (UNIVERSITE PARIS DIDEROT - PARIS 7, priority 2012, published 2015).

Assays:
[1] = tested on: maturation (3′-processing) of the linear viral DNA of HIV-1 in CEM cells; experiment: Quantification of mature and non-mature linear viral DNA by LM-PCR after infection of CEM cells; format: cell-based
[2] = tested on: integration of HIV-1 viral DNA in infected cells; experiment: Quantification of integrated viral DNA by Alu-PCR in infected cells; format: cell-based; conditions: WT virus, 500 nM raltegravir, FIG. 3D
Text: (§1) The bands at 2-LTR are amplified by the primers flanking the LTR-LTR junction (HIVF and HIVR1 primers) (Brussel & Sonigo (2003) Journal of Virology 77:10119-10124). The viral DNA integrated is quantified by Alu-PCR (Brussel & Sonigo (2003) Journal of Virology 77:10119-10124). The U5-gag sequences, the 2-LTR junctions as well as the specific amplification of the integrated DNA are amplified in duplicate starting from 1/50 of the extraction of cell DNA. The number of copies is normalized per μg of DNA by measuring the quantity of β-globin gene in 1/50 of the DNA extract (Table 1).

[3] = tested on: viral integration; experiment: Inhibition of viral integration by INSTI (Example 4); format: cell-based, HIV-1; conditions: for IC50: Human immunodeficiency virus 1, read-out: IC50 for inhibition of viral integration
[4] = tested on: maturation reaction (3′-processing); experiment: Effect of INSTI on the maturation reaction (3′-processing) in infected cells (Example 4); format: cell-based, HIV-1; conditions: for effect on the maturation step: 500 nM inhibitor; for maturation efficacy: 2.5 μM inhibitor
Text: Quantification of 3′ non-mature and mature linear forms of the DNA of HIV-1 by LM-PCR. The strategy used in order to quantify the linear viral DNA is based on the ligation of a linking oligonucleotide (or “linker”) at the ends of the viral ends followed by two PCRs according to the protocol of Pierson et al. (Pierson et al. (2002) Journal of Virology 17:8518-8531). Major improvements have been made in order to implement an approach of quantitative PCR type.

[5] = tested on: maturation reaction in primary CD4+ T lymphocytes infected with Δenv virus of wild-type; experiment: Efficacy of maturation during infection of primary CD4+ T lymphocytes; format: cell-based, HIV-1; conditions: 5 μM inhibitor
Text: In addition, the accumulation kinetics of the 1-LTR and 2-LTR bands are similar in the primary cells with respect to cells of cellular line.

[6] = tested on: maturation reaction; experiment: Confirmation of the effect on maturation with a radiolabeled probe derived from the PCR; format: cell-based, HIV-1; conditions: 5 μM inhibitor
Text: The different effects of each of the inhibitors on the maturation reaction were confirmed with the aid of a radiolabeled probe derived from the PCR.

[7] = tested on: 2-LTR or 1-LTR bands of HIV-1 viral DNA; experiment: Accumulation of 2-LTR and 1-LTR bands with INSTI (Example 4); format: cell-based; conditions: for 2 LTR bands as share of the viral forms: 500 nM to 5 μM, 48 h post-infection; for accumulation of 2-LTR or 1-LTR bands on varying the concentration: from 500 nM to 5 μM
Experimental: Quantification of the 1-LTR bands. The quantifications were carried out by real-time PCR on a Light Cycler apparatus (Roche Diagnostics, Meylan, France) with the aid of the second derivative method provided with the Light Cycler quantification software, version 3.5 (Roche Diagnostics). The number of DNA copies of the 1-LTR bands was determined by quantifying the viral molecules with the aid of primers which hybridize to the genes gag and env, as well as to hybridization probes. The reaction mixtures contain 1× LightCycler FastStart DNA master HybProbes buffer (Roche Diagnostics reference 12239272001), 4 mM MgCl2, 300 nM of 1-LTR LA1 primers (5′-[…]-3′, SEQ ID NO: 1) and 1-LTR LA16 (5′-[…]-3′, SEQ ID NO: 2) and 200 nM of LTR FL* hybridization probes (5′-[…]^a-3′, SEQ ID NO: 3) and LTR LC*(5′-[…]^b-3′, SEQ ID NO: 4) (^aFluorescein at the 3′ end; ^bLC red 640 at the 5′ end and phosphorylated at the 3′ end) in a final volume of 20 μl. The conditions of the PCR cycles for the quantification of the 1-LTR bands are the following: denaturation step for 8 min followed by 40 cycles (95° C. for 10 s, 60° C. for 10 s, and 72° C. for 25 s). The number of copies of 1-LTR bands was determined by reference to a calibration curve prepared by amplifying quantities ranging from 100 to 10^5 copies of p1-LTR.
as §1

[8] = molecular target: T1, recombinant integrase (Human immunodeficiency virus type 1 group M subtype B, UniProt P12497); experiment: In vitro maturation reaction with recombinant integrase; format: biochemical, HIV-1
T1 construct: with the aid of recombinant integrase

Row | Compound | quantity of linear viral DNA (mature and non-mature), compared with WT ([1]; 500 nM raltegravir, achieved 8 hours post-infection) | quantity of mature viral DNA with or without raltegravir ([1]; WT virus, 500 nM raltegravir) | detection of integrated viral DNA [2] | lowest concentration completely inhibiting viral integration [3] | IC50 [3] | effect on the maturation step [4] | maturation activity / maturation efficacy ([4]; 5 μM inhibitor) | efficacy of the maturation reaction influenced or not [5] | percentage of mature viral DNA ([1]; wild-type integrase virus, 20 μM FZ41 at the time of infection, 20 hours post-infection (75% without compound)) | maturation efficacy [4] | effect on maturation [6] | 2 LTR bands as share of the viral forms [7] | accumulation of 2-LTR or 1-LTR bands on varying the concentration [7] | IC50 [8]
1 | Cc1nnc(C(=O)NC(C)(C)c2nc(C(=O)NCc3ccc(F)cc3)c(O)c(=O)n2C)o1 [RAL, raltegravir] | the same | similar | inhibition of the detection of integrated viral DNA | 500 nM | 8 nM | not affected | 80% | not | – | – | – | – | – | –
2 | COc1cc(/C=C/c2ccc3ccc(C(=O)O)c(O)c3n2)cc(O)c1O [FZ41] | – | – | – | – | – | – | – | – | 28% | – | – | – | – | –
3 | COc1cc2c(cc1Cc1cccc(Cl)c1F)c(=O)c(C(=O)O)cn2[C@H](CO)C(C)C [EVG, elvitegravir] | – | – | – | 500 nM | 2 nM | not affected | – | influenced | – | approximately 40% | significantly inhibit maturation | ~40% | does not lead to an increase | –
4 | C[C@@H]1CCO[C@H]2Cn3cc(C(=O)NCc4ccc(F)cc4F)c(=O)c(O)c3C(=O)N12 [DTG, dolutegravir] | – | – | – | 500 nM | 2 nM | not affected | – | influenced | – | approximately 40% | significantly inhibit maturation | ~40% | does not lead to an increase | 2000 nM
